Test results taken from paper PMC2994747, “Molecular Characterization of c-Abl/c-Src Kinase Inhibitors Targeted against Murine Tumour Progenitor Cells that Express Stem Cell Markers” (PLoS ONE, 2010).
Like-named read-outs stand apart in the source and are kept apart here.

Tests used:
[1] = biological target: T1, c-Abl (Homo sapiens, UniProt P00519); assay: Abl filter-binding kinase assay (Abtide, [γ-32P]ATP); assay type: biochemical; conditions: isolated Abl; calculated from ID50, ATP-competitive; E0 0.005, S0 0.012 µM
T1 construct: His tag; purchased Upstate (Lake Placid, NY, USA)
Method: (§1) Baculovirus-produced recombinant purified his-tagged active against human Src and Abl were purchased from Upstate (Lake Placid, NY, USA).
(§2) Src activity was measured in a filter-binding assay using the Src Assay Kit (Upstate, Lake Placid, NY, USA), according to the manufacturer's protocol, using the specific Src peptide substrate [[…]] in the presence of 0.125 pmol of Src and 0.160 pmol of [γ-^32P]ATP. Abl activity was measured in a filter-binding assay using an Abl specific peptide substrate (Abtide, Upstate). Reaction conditions were (in a final volume of 10 µl): 25 mM Tris-HCl pH 7.5, 1 mM DTT, 0.012 µM [γ-^32P]ATP, 0.022 µM c-Abl. Reactions were incubated 10 min at 30°C.The samples (9 µl) were spotted on paper cellulose filters which were washed according to the manufacturer's protocol. Filter-bound radioactivity was measured by liquid scintillation with a Microbeta-Trilux apparatus (PerkinElmer, Waltham, MA, USA).
(§3) The ID50 were converted to Ki according to a competitive mechanism with respect to the substrate ATP. […] Since (i) the ATP concentration was limiting, i.e., [ATP], Km(ATP), and (ii) the enzyme concentration was not negligible with respect to the ATP concentration, the classical Cheng-Prusoff relationship was not applicable. Consequently, Ki values were calculated according to [drawing 3] (2) where S0 is the concentration of the competing substrate (ATP) and E0 is the concentration of the enzyme. Each experiment was done in triplicate and mean values were used for the interpolation. Curve fitting was performed with the program GraphPad Prism.

[2] = test system: A2C12; assay: MTS cell viability assay; assay type: cell-based, mouse
Method: (§4) Three human and eleven murine cancer cell lines were used. The human NSCLC cell line A549 (ACC 107) and the human colorectal carcinoma cell line CaCo2 (ACC 169) were obtained from Deutsche Sammlung von Mikroorganismen und Zellkulturen (DSMZ, Braunschweig, Germany). The human hepatocellular carcinoma cell line HepG2 (HB-8065) was obtained from American Type Culture Collection (Manassas, VA, USA). The 11 murine NSCLC cell lines were established as described recently. Cells were grown in monolayer cultures in DMEM containing 10% foetal calf serum, 4 mmol/l L-glutamine and 2% Penicillin/Streptomycin at 37°C in a humidified atmosphere of 95% air and 5% CO2.
(§5) Cell culture viability was monitored by CellTiter96® AQueous One Solution Cell Proliferation Assay (Promega GmbH, Mannheim, Germany). The cells were seeded in triplicates in 96-well microtitre plates and treated with the dual kinase inhibitors or vehicle (0.2% DMSO). After 24 h or 96 h of treatment the MTS tetrazolium reagent was added to the cells and incubated for 1 h. Absorbance at 490 nm was assayed with a Victor3 Wallac 1420 Multilabel counter (PerkinElmer, Waltham, MA, USA).

[3] = test system: BetaD5; assay: MTS cell viability assay; assay type: cell-based, mouse
Method: as §4, §5

[4] = test system: GammaA3; assay: MTS cell viability assay; assay type: cell-based, mouse
Method: as §4, §5

[5] = test system: GammaD12; assay: MTS cell viability assay; assay type: cell-based, mouse; conditions: MTS
Method: as §4, §5

[6] = test system: A549; assay: MTS cell viability assay; assay type: cell-based, human
Method: as §4, §5

[7] = test system: CaCo2; assay: MTS cell viability assay; assay type: cell-based, human
Method: as §4, §5

[8] = test system: HepG2; assay: MTS cell viability assay; assay type: cell-based, human
Method: as §4, §5

[9] = biological target: T2, c-Src (Homo sapiens, UniProt P12931); assay: Src filter-binding kinase assay (Src Assay Kit); assay type: biochemical; conditions: isolated Src; calculated from ID50, ATP-competitive; E0 0.005, S0 0.012 µM
T2 construct: His tag; purchased Upstate (Lake Placid, NY, USA)
Method: as §1, §2, §3

[10] = test system: A2C12; assay: Cell cycle analysis by flow cytometry; assay type: cell-based, mouse; conditions: IC50 concentration, 96 h
Method: (§6) CycleTEST™ PLUS DNA Reagent Kit (Becton Dickinson GmbH, Heidelberg, Germany) for cell cycle analysis was used, according to the instructions of the manufacturer. Briefly, the cells were harvested with trypsin, washed with PBS, and resuspended in CycleTEST Buffer. The cells were centrifuged and resuspended in solution A. After incubation for 10 min at room temperature, solution B was added and incubated. After adding solution C, the samples were incubated at 4°C protected from light. The samples were stored on ice and protected from light until analysis by FACScan flow cytometer (Becton Dickinson GmbH, Heidelberg, Germany).

[11] = test system: BetaD5; assay: Cell cycle analysis by flow cytometry; assay type: cell-based, mouse; conditions: IC50 concentration, 96 h
Method: as §6

[12] = test system: GammaA3; assay: Cell cycle analysis by flow cytometry; assay type: cell-based, mouse; conditions: IC50 concentration, 96 h
Method: as §6

[13] = test system: GammaD12; assay: Cell cycle analysis by flow cytometry; assay type: cell-based, mouse; conditions: IC50 concentration, 96 h
Method: as §6

[14] = test system: A549; assay: Cell cycle analysis by flow cytometry; assay type: cell-based, human; conditions: IC50 concentration, 96 h
Method: as §6

[15] = test system: CaCo2; assay: Cell cycle analysis by flow cytometry; assay type: cell-based, human; conditions: IC50 concentration, 96 h
Method: as §6

[16] = test system: HepG2; assay: Cell cycle analysis by flow cytometry; assay type: cell-based, human; conditions: IC50 concentration, 96 h
Method: as §6

[17] = 24 h, read-out: Calculated IC50 after single treatment for 24 h
[18] = 96 h, read-out: Calculated IC50 after daily treatment for 96 h
[19] = Mus musculus, 24 h, read-out: Calculated IC50 after single treatment for 24 h
[20] = Mus musculus, 96 h, read-out: Calculated IC50 after daily treatment for 96 h
[21] = Homo sapiens, A549, 24 h, 24 h, read-out: Calculated IC50 after single treatment for 24 h
[22] = Homo sapiens, A549, 96 h, 96 h, read-out: Calculated IC50 after daily treatment for 96 h
[23] = Homo sapiens, Caco-2, 24 h, read-out: Calculated IC50 after single treatment for 24 h
[24] = Homo sapiens, Caco-2, 96 h, read-out: Calculated IC50 after daily treatment for 96 h
[25] = Homo sapiens, 24 h, read-out: Calculated IC50 after single treatment for 24 h
[26] = Homo sapiens, 96 h, read-out: Calculated IC50 after daily treatment for 96 h

T1 sequence (P00519 whole entry): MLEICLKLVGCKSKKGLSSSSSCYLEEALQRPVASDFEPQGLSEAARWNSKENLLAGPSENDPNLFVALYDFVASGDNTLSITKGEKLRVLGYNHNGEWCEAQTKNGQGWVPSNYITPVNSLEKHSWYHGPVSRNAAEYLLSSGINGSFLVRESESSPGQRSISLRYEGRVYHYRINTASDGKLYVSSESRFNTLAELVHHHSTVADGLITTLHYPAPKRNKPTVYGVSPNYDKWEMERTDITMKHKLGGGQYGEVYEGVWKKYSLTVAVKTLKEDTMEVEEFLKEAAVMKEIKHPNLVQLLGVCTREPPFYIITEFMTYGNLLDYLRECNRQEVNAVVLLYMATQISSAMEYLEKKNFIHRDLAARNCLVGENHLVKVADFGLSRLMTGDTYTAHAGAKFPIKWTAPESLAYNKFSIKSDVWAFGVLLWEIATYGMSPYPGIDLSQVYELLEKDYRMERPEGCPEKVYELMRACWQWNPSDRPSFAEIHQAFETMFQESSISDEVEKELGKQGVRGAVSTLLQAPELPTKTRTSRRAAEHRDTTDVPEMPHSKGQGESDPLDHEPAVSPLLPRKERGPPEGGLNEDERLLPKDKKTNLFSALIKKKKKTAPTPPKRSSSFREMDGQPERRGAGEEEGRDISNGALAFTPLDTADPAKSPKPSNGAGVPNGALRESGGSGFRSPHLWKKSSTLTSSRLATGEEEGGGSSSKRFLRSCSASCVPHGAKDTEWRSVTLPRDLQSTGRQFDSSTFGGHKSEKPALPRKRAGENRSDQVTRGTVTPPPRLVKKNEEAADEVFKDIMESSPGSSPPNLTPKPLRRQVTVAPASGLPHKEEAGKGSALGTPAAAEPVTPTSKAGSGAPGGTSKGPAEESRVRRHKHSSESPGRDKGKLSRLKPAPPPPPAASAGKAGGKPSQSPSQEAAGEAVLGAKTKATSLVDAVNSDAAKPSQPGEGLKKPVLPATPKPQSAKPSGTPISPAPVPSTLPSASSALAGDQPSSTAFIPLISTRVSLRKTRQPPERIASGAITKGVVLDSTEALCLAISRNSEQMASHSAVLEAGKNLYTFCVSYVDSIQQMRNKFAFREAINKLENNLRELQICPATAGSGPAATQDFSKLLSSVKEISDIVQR
T2 sequence (P12931 whole entry): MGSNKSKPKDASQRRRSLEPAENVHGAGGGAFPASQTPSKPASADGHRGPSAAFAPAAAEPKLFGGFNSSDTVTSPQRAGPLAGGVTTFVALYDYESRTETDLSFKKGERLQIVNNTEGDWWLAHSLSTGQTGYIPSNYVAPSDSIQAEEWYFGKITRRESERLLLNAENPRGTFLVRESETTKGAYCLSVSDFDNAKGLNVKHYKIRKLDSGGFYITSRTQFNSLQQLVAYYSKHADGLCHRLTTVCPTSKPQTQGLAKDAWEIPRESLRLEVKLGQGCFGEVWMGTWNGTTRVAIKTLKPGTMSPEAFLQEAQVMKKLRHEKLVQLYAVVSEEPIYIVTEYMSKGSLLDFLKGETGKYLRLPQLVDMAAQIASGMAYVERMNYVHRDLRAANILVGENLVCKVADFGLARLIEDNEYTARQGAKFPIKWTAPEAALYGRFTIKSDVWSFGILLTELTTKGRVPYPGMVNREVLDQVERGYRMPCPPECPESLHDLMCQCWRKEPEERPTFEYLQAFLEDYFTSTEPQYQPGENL

## BrC(Cn1ncc2c(N3CCOCC3)ncnc21)c1ccccc1 (stereo not drawn) [Si51]
[1]
  Ki: 220 nM
[2]; [17]
  IC50: > 100 µM
[2]; [18]
  IC50: > 20 µM
[3]; [17]
  IC50: > 100 µM
[3]; [18]
  IC50: > 20 µM
[4]; [17]
  IC50: > 100 µM
[4]; [18]
  IC50: > 20 µM
[5]; [17]
  IC50: > 100 µM
[5]; [18]
  IC50: > 20 µM
[6]; [17]
  IC50: > 100 µM
[6]; [18]
  IC50: > 20 µM
[7]; [17]
  IC50: > 100 µM
[7]; [18]
  IC50: > 20 µM
[8]; [17]
  IC50: > 100 µM

## Cc1nc(Nc2cccc(Cl)c2)c2cnn(CC(Cl)c3ccccc3)c2n1 (stereo not drawn) [Si167]
[1]
  Ki: 500 nM
[9]
  Ki: 362 nM
[2]; [19]
  IC50: 16.4 ± 0.8 µM
[2]; [20]
  IC50: 10.6 ± 0.9 µM
[3]; [19]
  IC50: 12.4 ± 1 µM
[3]; [20]
  IC50: 9.3 ± 0.6 µM
[4]; [19]
  IC50: 20.5 ± 1.2 µM
[4]; [20]
  IC50: 16.8 ± 3.2 µM
[5]; [19]
  IC50: 19.5 ± 0.8 µM
[5]; [20]
  IC50: 9 ± 0.9 µM
[6]; [21]
  IC50: 19.8 ± 2.8 µM
[6]; [22]
  IC50: 5.7 ± 0.3 µM
[7]; [23]
  IC50: 32.2 ± 1.7 µM
[7]; [24]
  IC50: 5.7 ± 0.6 µM
[8]; [25]
  IC50: 32.2 ± 1.7 µM
[8]; [26]
  IC50: 11.4 ± 1.7 µM
[10]
  Cells in G1 phase: 55.7%
  Cells in G2 phase: 13.1%
  Cells in S phase: 31.2%
[11]
  Cells in G1 phase: 74.7%
  Cells in G2 phase: 18.7%
  Cells in S phase: 6.6%
[12]
  Cells in G1 phase: 73.2%
  Cells in G2 phase: 15.1%
  Cells in S phase: 11.7%
[13]
  Cells in G1 phase: 42%
  Cells in G2 phase: 9.4%
  Cells in S phase: 48.6%
[14]
  Cells in G1 phase: 61.5%
  Cells in G2 phase: 6.7%
  Cells in S phase: 31.8%
[15]
  Cells in G1 phase: 52.7%
  Cells in G2 phase: 18%
  Cells in S phase: 29.3%
[16]
  Cells in G1 phase: 57.8%
  Cells in G2 phase: 10.6%
  Cells in S phase: 31.6%

## CSc1nc(NCCc2ccccc2)c2cnn(C=Cc3ccccc3)c2n1 [Si40]
[1]
  Ki: 450 nM
[2]; [17]
  IC50: > 100 µM
[2]; [18]
  IC50: 7 ± 0.5 µM
[3]; [17]
  IC50: 43.6 ± 3.6 µM
[3]; [18]
  IC50: 12.9 ± 2.9 µM
[4]; [17]
  IC50: > 100 µM
[4]; [18]
  IC50: > 20 µM
[5]; [17]
  IC50: 26 ± 3 µM
[5]; [18]
  IC50: 12.7 ± 0.4 µM
[6]; [17]
  IC50: > 100 µM
[6]; [18]
  IC50: 16.2 ± 2.1 µM
[7]; [17]
  IC50: > 100 µM
[7]; [18]
  IC50: 0.4 ± 0.1 µM
[8]; [17]
  IC50: > 100 µM
[10]
  Cells in G1 phase: 75.7%
  Cells in G2 phase: 9.8%
  Cells in S phase: 14.6%
[12]
  Cells in G1 phase: 53.4%
  Cells in G2 phase: 15.4%
  Cells in S phase: 31.3%
[13]
  Cells in G1 phase: 28.4%
  Cells in G2 phase: 2.7%
  Cells in S phase: 68.9%
[14]
  Cells in G1 phase: 81%
  Cells in G2 phase: 3.8%
  Cells in S phase: 15.2%
[15]
  Cells in G1 phase: 52.5%
  Cells in G2 phase: 10.3%
  Cells in S phase: 37.2%

## Cc1nc(Nc2cccc(F)c2)c2cnn(CC(Cl)c3ccccc3)c2n1 (stereo not drawn) [Si166]
[1]
  Ki: 151 nM
[9]
  Ki: 338 nM
[2]; [19]
  IC50: 16.6 ± 1.2 µM
[2]; [20]
  IC50: 11.5 ± 0.5 µM
[3]; [19]
  IC50: 14 ± 2.1 µM
[3]; [20]
  IC50: 10.6 ± 0.7 µM
[4]; [19]
  IC50: 17 ± 2.3 µM
[4]; [20]
  IC50: 19 ± 1.3 µM
[5]; [19]
  IC50: 18.1 ± 1.4 µM
[5]; [20]
  IC50: 15.9 ± 1.4 µM
[6]; [21]
  IC50: 20.2 ± 2.5 µM
[6]; [22]
  IC50: 8.3 ± 0.3 µM
[7]; [23]
  IC50: 37.7 ± 2.4 µM
[7]; [24]
  IC50: 6 ± 0.7 µM
[8]; [25]
  IC50: 37.7 ± 2.4 µM
[8]; [26]
  IC50: 10.8 ± 0.9 µM
[10]
  Cells in G1 phase: 56.1%
  Cells in G2 phase: 13.6%
  Cells in S phase: 30.4%
[11]
  Cells in G1 phase: 68.3%
  Cells in G2 phase: 20.8%
  Cells in S phase: 10.9%
[12]
  Cells in G1 phase: 74.4%
  Cells in G2 phase: 14.1%
  Cells in S phase: 11.5%
[13]
  Cells in G1 phase: 39.5%
  Cells in G2 phase: 10.2%
  Cells in S phase: 50.3%
[14]
  Cells in G1 phase: 63.2%
  Cells in G2 phase: 6.6%
  Cells in S phase: 30.2%
[15]
  Cells in G1 phase: 56.7%
  Cells in G2 phase: 17.8%
  Cells in S phase: 25.5%
[16]
  Cells in G1 phase: 54.6%
  Cells in G2 phase: 9.6%
  Cells in S phase: 35.8%
